Results: ChEMBL document CHEMBL5325494, “Glycogen synthase kinase-3: A potential target for diabetes” (Bioorg Med Chem, 2023)
One block for each compound: values may come before it.

Tests used:
[1] = target: T1, Glycogen synthase kinase-3 beta (Homo sapiens, UniProt P49841); assay: Inhibition of GSK-3beta (unknown origin)
PC-12 = assay: Neuroprotective activity against CORT-induced damage in rat PC-12 cells measured after 24 hrs by MTT assay; format: functional, cell-based; conditions: PC-12, 24 h
[2] = target: T1, Glycogen synthase kinase-3 beta; assay: Binding affinity to full length GST-tagged human recombinant GSK-3beta (1 to 420 residues) expressed in Escherichia coli assessed as inhibition constant
[3] = target: T1, Glycogen synthase kinase-3 beta; assay: Inhibition of human wildtype full length GSK-3beta
[4] = target: T1, Glycogen synthase kinase-3 beta; assay: Inhibition of full length GST-tagged human recombinant GSK-3beta (1 to 420 residues) expressed in Escherichia coli
[5] = target: T1, Glycogen synthase kinase-3 beta; assay: Inhibition of GSK-3beta (unknown origin) incubated for 1 hr by HTRF assay
[6] = target: T1, Glycogen synthase kinase-3 beta; assay: Inhibition of human GSK-3beta

T1 sequence (P49841 whole entry): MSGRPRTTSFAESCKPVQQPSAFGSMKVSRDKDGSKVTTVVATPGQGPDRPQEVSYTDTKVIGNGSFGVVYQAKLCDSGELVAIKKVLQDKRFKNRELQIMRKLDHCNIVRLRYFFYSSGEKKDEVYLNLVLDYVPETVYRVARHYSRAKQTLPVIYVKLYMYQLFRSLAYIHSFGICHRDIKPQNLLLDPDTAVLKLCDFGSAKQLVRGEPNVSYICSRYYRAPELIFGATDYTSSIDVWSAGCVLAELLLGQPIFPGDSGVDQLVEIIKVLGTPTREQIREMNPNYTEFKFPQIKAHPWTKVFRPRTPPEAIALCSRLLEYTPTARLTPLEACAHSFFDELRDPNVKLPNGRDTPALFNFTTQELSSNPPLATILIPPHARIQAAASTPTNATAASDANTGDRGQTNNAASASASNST

Structure (SMILES): Nc1nc(NCCNc2ncc(-c3ncc[nH]3)c(-c3ccc(Cl)cc3Cl)n2)ccc1[N+](=O)[O-]
IC50 [1]: 0.06 nM

Structure (SMILES): N#C[C@@H](CC1=NN2C(N)=NC(NC3CCCCC3)=NC2N1)C(N)=O (some centres undefined)
EC50 (PC-12): 3 nM

Structure (SMILES): COc1ccccc1-c1c2c(nc3[nH]nc(C)c13)CC(C)(C)CC2=O
IC50 [3]: 54 nM

Structure (SMILES): O=C(O)C1=CN2C3C(=C(NCCNc4ccccn4)C(F)=CC3C1=O)OCCC21CCC1 (centres undefined)
IC50 [1]: 36 nM

Structure (SMILES): CC(/C=C1\SC(=S)N(CC(=O)O)C1=O)=C\c1ccccc1
IC50 [6]: 21 nM

The next lines start with the values.

IC50 [1]: 8 nM
Structure (SMILES): CN1CCN(c2ccc(NCCNc3ccc([N+](=O)[O-])c(N)n3)nc2-c2ccc(Cl)cc2Cl)C(=O)C1

Ki [2]: 90 nM
Structure (SMILES): COCCNC(=O)c1nc(-c2ccc(S(=O)(=O)N3C=CN(C)CC3)cc2)cnc1N

IC50 [4]: 10 nM
Structure (SMILES): Nc1ncc(-c2ccc(S(=O)(=O)N3C=COCC3)cc2)nc1C(=O)Nc1cccnc1

IC50 [5]: 9 nM
Structure (SMILES): COCCN1CCC(CNC(=O)c2ncc3ccc(-c4cncc(OC(C)C)c4)cn23)CC1
